Measured values reported in US9115145B2, “Tocotrienol derivatives and associated methods” (FIRST TECH INTERNATIONAL LIMITED, priority 2011, dated 2015).
Where two headings read alike, the source gives them in different places.

How the values were obtained:
[1] = test system: +SA mammary epithelial cells; test: MTT assay of +SA cells (antiproliferative activity); assay type: cell-based, mouse; conditions: for IC50: 24 hours treatment, read-out: IC50 antiproliferative activity against +SA mammary epithelial cells; for antiproliferative activity against +SA mammary tumor cells (in words): described from FIG. 32 / text
Method: The antiproliferative activities of Compounds 3-44 against the highly metastatic malignant +SA mammary epithelial cells were evaluated by MTT assay. Materials for the assay were purchased from Sigma Chemical Company (St. Louis, Mo.) unless otherwise stated. The highly malignant +SA mouse mammary epithelial cell line was serially passaged at subconfluent cell density. The +SA mammary tumor cell line was derived from an adenocarcinoma that developed spontaneously in a BALB/c female mouse. +SA cells were maintained in serum-free defined medium consisting of Dulbecco's modified Eagle's medium (DMEM)/F12 containing 5 mg/mL bovine serum albumin (BSA), 10 […], 100 U/mL soybean trypsin inhibitor, 100 U/mL penicillin G, 0.1 mg/mL streptomycin, […], and 10 ng/mL epidermal growth factor. For subculturing, cells were rinsed twice with sterile Ca2+ and Mg2+-free phosphate buffered saline (PBS) and incubated in 0.05% trypsin containing 0.025% EDTA in PBS for 5 min at 37° C. The released cells were centrifuged, resuspended in fresh media and counted using hemocytometer. A stock solution of the compounds was prepared in DMSO. Once dissolved, this solution was added to a small volume of sterile 10% BSA in water and incubated overnight at 37° C. This solution conjugated to BSA was used to prepare various concentrations (0-40 μM) of tocotrienol analogs. DMSO was added to all treatment media such that the final DMSO concentration was the same in all treatment groups within a given experiment and was always less than 0.1%. For cytotoxic studies, cells were seeded at a density of 5×10^4 cells/well (+SA cells) or 1×10^5 cells/well (CL-S1 cells) (6 wells/group) in 24-well culture plates and allowed to grow in their respective control media. After 3 days incubation period (approximately 70% confluency), cells were divided equally into various treatment groups and exposed to their respective treatments for a 24 hours incubation period. Following the 24 hours treatment period, cell viability was measured using the MTT assay.
+SA Mammary epithelial cell viable number was determined by a 3-(4,5-dimethylthiazol-2yl)-2,5-diphenyl tetrazolium bromide (MTT) colorimetric assay. On the assay day, treatment medium was replaced with fresh control medium containing 0.42 mg/mL MTT, and the cells in 24-well plates were incubated at 37° C. for 4 hours. Afterward, the medium was removed, and the MTT crystals were dissolved in isopropyl alcohol (1 mL/well). The optical density of each sample was read at 570 nm on a microplate reader (SpectraCount, Packard BioScience Company), against a blank prepared from cell-free cultures. The number of cells/well was calculated against a standard curve prepared by plating various concentrations of cells, as determined by hemocytometer, at the start of each experiment.
Differences among the various treatment groups in +SA cell cytotoxic studies were determined by analysis of variance (ANOVA) followed by Dunnett's t-test. The difference of P<0.05 was considered to be statistically significant as compared with vehicle-treated controls unless separately described. Linear regression analysis of treatment effects on viable cell number in growth and cytotoxicity studies was used to determine the 50% growth inhibition concentration (IC50) for individual treatments.

[2] = test system: MDA-MB-231 human breast cancer cells; test: Wound-healing assay (cell migration); assay type: cell-based
Method: The highly metastatic human breast cancer MDA-MB-231 cells were cultured in RPMI 1640 medium containing 10 mM HEPES, 4 mM L-glutamine, 10% fetal bovine serum, penicillin (100 IU/mL), and streptomycin (50 μg/mL), and grown in a 5% CO2 atmosphere at 37° C. Cells were plated onto sterile 24-well and allowed to recover for a confluent cell monolayer formed in each well (>95% confluence). Wounds were then inflicted to each cell monolayer using a sterile 200 μL pipette tip. Media were removed, cells monolayers were washed twice with PBS, and then fresh media containing test compounds were added to each well. Test compounds were prepared in DMSO at 5 μM concentration and added to the plates, each in triplicate using DMSO as negative control. The incubation was carried out for 24 h under serum-starved conditions, after which media was removed and cells were fixed and stained using a staining composition sold under the trade name Diff Quick (Dade Behring Diagnostics, Aguada, Puerto Rico). The stain comprised a fixative reagent containing 1.8 mg/L triarylmethane dye in methyl alcohol; a first solution of 1 g/L xanthene dye, buffer, and sodium azide (0.01%) as preservative; and a second solution of 1.25 g/L Thiazine dye mixture (0.625 g/L azure A and 0.625 g/L methylene blue) and buffer. The number of cells migrated on the scratched wound were counted under the microscope in three or more randomly selected fields (magnification: 400×). Final results are expressed as mean±SEM per 400× field. The wound-healing assay is a simple method for the study of directional cell migration in vitro.
Compounds were tested for their ability to inhibit the migration of the highly metastatic MDA-MB-231 human breast cancer cells in the wound-healing assay using the procedure described above. Compounds 6, 10, 12, 13, 24, 26, 27, and 29 inhibited the migration of more than 50% of the human breast cancer cells MDA-MB-231 in the wound healing assay at 5 μM dose. […] The antimigratory activity of tocotrienols may be enhanced by a terminal aromatic functionality. The presence of electron withdrawing group, such as nitro in Compound 29, may eliminate the antiproliferative activity yet retain the antimigratory activity of the compound. While the electron donating groups, such as OH and OMe found in Compounds 23 and 26, respectively, retained both antiproliferative and antimigratory activities.
Utilizing similar procedures follow-up testing was conducted on a variety of compounds using a range of compound concentrations. The results of follow-up antimigratory testing are shown in FIG. 35B and Table III below with IC50 values calculated using statistical software.

[3] = test system: MCF7 human breast cancer cell line; test: MTT assay of MCF7 cells; assay type: cell-based; conditions: Homo sapiens, media containing 1% fetal bovine serum
Method: (§1) MDA-MB-231 and MCF7 cells were plated at a density of 8×10^3 cells/well and 10^4 cells/well in 96-well culture plates, respectively. The compounds were fed in serum free media containing 5% and 1% fetal bovine serum for MDA-MB-231 and MCF7 cells, respectively.

[4] = test system: MDA-MB-231 human breast cancer cell line; test: MTT assay of MDA-MB-231 cells; assay type: cell-based; conditions: Homo sapiens, media containing 5% fetal bovine serum
Method: as §1

[5] = test system: MCF 10A non-tumorigenic mammary epithelial cells; test: MTT assay of MCF10A cells; assay type: cell-based, human; conditions: for IC50: Homo sapiens
Method: MCF 10A (ATCC cat # CRL-10317) normal human non-tumorigenic mammary epithelial cells were maintained in serum-free defined medium consisting of Dulbecco's modified Eagle's medium (DMEM)/F12 containing 5% horse serum, 1% penicillin/streptomycin, 0.5 μg/mL hydrocortisone, 100 ng/mL cholera toxin, 10 μg/mL insulin, and 20 ng/mL epidermal growth factor (rhEGF). For subculturing, cells were rinsed twice with sterile Ca2+ and Mg2+-free phosphate buffered saline (PBS) and incubated in 0.25% trypsin containing 0.025% EDTA in PBS for 5 min at 37° C. The released cells were centrifuged, re-suspended in fresh media and counted using a hemocytometer. For testing, MCF 10A cells were plated at a density of 10×10^4 cells/well. A stock solution of the compounds was prepared in DMSO. DMSO was added to all treatment media such that the final DMSO concentration was the same in all treatment groups within a given experiment and was always less than 0.1%. The compounds were fed in serum free media. MCF10A mammary epithelial cell's viable number was determined by MTT colorimetric assay. […] IC50 values were calculated by non-linear regression using statistical software. The selectivity index indicated in the table represents the IC50 value for the MCF 10A cell line divided by the IC50 value for the +SA cell line.

Q: `CC(C)=CCC/C(C)=C/CC/C(C)=C/CC[C@]1(C)CCc2c(CO)c(O)cc(C)c2O1` [Compound 33, (R)-5-(hydroxymethyl)-2,8-dimethyl-2-((3E,7E)-4,8,12-trimethyltrideca-3,7,11-trienyl)chroman-6-ol] was tested. Which IC50 ([1]; Mus musculus, +SA cell) did it give?
A: ≥ 6600 nM

Q: How did the IC50 ([2]; MDA-MB-231, wound-healing assay, dose response, read-out: IC50 antimigratory activity) turn out when `CC(C)=CCC/C(C)=C/CC/C(C)=C/CC[C@]1(C)CCc2cc(O)cc(C)c2O1` [Compound 2, δ-tocotrienol, reference compound] was run?
A: > 40 µM

Q: What about the IC50 [1] of the same compound?
A: 3000 nM

Q: With `CC(C)=CCC/C(C)=C/CC/C(C)=C/CC[C@]1(C)CCc2c(CO)c(O)c(C)c(C)c2O1` [Compound 32, (R)-5-(hydroxymethyl)-2,7,8-trimethyl-2-((3E,7E)-4,8,12-trimethyltrideca-3,7,11-trienyl)chroman-6-ol] as the compound, how does the IC50 ([1]; Mus musculus, +SA cell) read?
A: 2600 nM

Q: Which IC50 ([1]; Mus musculus, +SA cell) does the source give for `CC(C)=CCC/C(C)=C/CC/C(C)=C/CC[C@]1(C)CCc2c3c(cc(C)c2O1)OCN(C)C3` [Compound 4, (R)-2,6,8-trimethyl-8-((3E,7E)-4,8,12-trimethyltrideca-3,7,11-trienyl)-1,2,3,8,9,10-hexahydrochromeno[5,6-e][1,3]oxazine] here?
A: 1200 to 2200 nM

Q: How did the IC50 ([1]; Mus musculus, +SA cell) turn out when `CC(C)=CCC/C(C)=C/CC/C(C)=C/CC[C@]1(C)CCc2cc(O)c(CO)c(C)c2O1` [Compound 34, (R)-7-(hydroxymethyl)-2,8-dimethyl-2-((3E,7E)-4,8,12-trimethyltrideca-3,7,11-trienyl)chroman-6-ol] was run?
A: ≥ 6600 nM

Q: `CC(C)=CCC/C(C)=C/CC/C(C)=C/CC[C@]1(C)CCc2c3c(cc(C)c2O1)OCN(Cc1cccc([N+](=O)[O-])c1)C3` [Compound 29, (R)-6,8-dimethyl-2-(3-nitrobenzyl)-8-((3E,7E)-4,8,12-trimethyltrideca-3,7,11-trienyl)-1,2,3,8,9,10-hexahydrochromeno[5,6-e][1,3]oxazine] was tested. Which inhibition at 5 µM ([2]; Homo sapiens, MDA-MB-231, 5 μM dose, 24 h, wound-healing assay) did it give?
A: > 50%

Q: What about the “antiproliferative activity against +SA mammary tumor cells (in words)” value (“antiproliferative activity” for short) [1] of the same compound?
A: inactive

Q: How did the IC50 [3] turn out when `CC(C)=CCC/C(C)=C/CC/C(C)=C/CC[C@]1(C)CCc2c3c(c(C)c(C)c2O1)OCN(CC1CCNCC1)C3` [Compound 16, (R)-5,6,8-trimethyl-2-(piperidin-4-ylmethyl)-8-((3E,7E)-4,8,12-trimethyltrideca-3,7,11-trienyl)-1,2,3,8,9,10-hexahydrochromeno[5,6-e][1,3]oxazine] was run?
A: > 20 µM

Q: And the “antiproliferative activity” value [1]?
A: strong activity

Q: And the IC50 [4]?
A: 800 nM

Q: For `CC(C)=CCC/C(C)=C/CC/C(C)=C/CC[C@]1(C)CCc2c3c(c(C)c(C)c2O1)OCN(Cc1cccc([N+](=O)[O-])c1)C3` [Compound 28, (R)-5,6,8-trimethyl-2-(3-nitrobenzyl)-8-((3E,7E)-4,8,12-trimethyltrideca-3,7,11-trienyl)-1,2,3,8,9,10-hexahydrochromeno[5,6-e][1,3]oxazine], which “antiproliferative activity” value [1] is on record?
A: significant activity but less so than Compounds 20

Q: With `CC(C)=CCC/C(C)=C/CC/C(C)=C/CC[C@]1(C)CCc2c3c(c(C)c(C)c2O1)OCN(C)C3` [Compound 3, (R)-2,5,6,8-tetramethyl-8-((3E,7E)-4,8,12-trimethyltrideca-3,7,11-trienyl)-1,2,3,8,9,10-hexahydrochromeno[5,6-e][1,3]oxazine] as the compound, how does the IC50 ([1]; Mus musculus, +SA cell) read?
A: 1200 to 2200 nM

Q: For `CCOC(CCN1COc2c(C)c(C)c3c(c2C1)CC[C@@](C)(CC/C=C(\C)CC/C=C(\C)CCC=C(C)C)O3)OCC` [Compound 14, (R)-2-(3,3-diethoxypropyl)-5,6,8-trimethyl-8-((3E,7E)-4,8,12-trimethyltrideca-3,7,11-trienyl)-1,2,3,8,9,10-hexahydrochromeno[5,6-e][1,3]oxazine], which “antiproliferative activity” value [1] is on record?
A: significantly decreased activity

Q: Which IC50 ([5]; MCF-10A, MCF10A cells, Table II, non-linear regression, read-out: MCF10A (IC50)) does the source give for `COc1ccc(CCN2COc3c(C)c(C)c4c(c3C2)CC[C@@](C)(CC/C=C(\C)CC/C=C(\C)CCC=C(C)C)O4)cc1OC` [Compound 23, (R)-2-(3,4-dimethoxyphenethyl)-5,6,8-trimethyl-8-((3E,7E)-4,8,12-trimethyltrideca-3,7,11-trienyl)-1,2,3,8,9,10-hexahydrochromeno[5,6-e][1,3]oxazine] here?
A: 700 nM

Q: And the IC50 ([5]; MCF 10A non-tumorigenic cells, Table I, read-out: IC50 MCF 10A)?
A: 700 nM

Q: What about the Selectivity index ([5]; IC50 for MCF 10A divided by IC50 for +SA cell line) of the same compound?
A: 0.39

Q: What about the IC50 [3] of the same compound?
A: > 20 µM

Q: What about the “antiproliferative activity” value [1] of the same compound?
A: very high activity

Q: What about the IC50 [4] of the same compound?
A: > 50000 nM

Q: Which “antiproliferative activity” value [1] does the source give for `CC(C)=CCC/C(C)=C/CC/C(C)=C/CC[C@]1(C)CCc2c3c(cc(C)c2O1)OCN(CCCCC(=O)O)C3` [Compound 20, 5-((R)-6,8-dimethyl-8-((3E,7E)-4,8,12-trimethyltrideca-3,7,11-trienyl)-9,10-dihydrochromeno[5,6-e][1,3]oxazin-2(1H,3H,8H)-yl)pentanoic acid] here?
A: strong activity but less so than the aforementioned compounds
